Here are results for 1 compound from US20190100557A1, “PRO[…], A GENE TRANSFER ENHANCER” (Pharis Biotec GmbH, priority 2013, published 2019).

Data set [1] is described as follows: Storage stability in aqueous solution followed by HPLC (FIG. 1). The class given is physicochemical. As to conditions: storage at 4° C. for 13 days, in vitro. The method, then: FIG. 1 is a high pressure liquid chromatography (HPLC) chromatogram of protransduzin A and protransduzin B.
In the left column of FIG. 1 (HPLC chromatogram), results for protransduzin A upon storage for 0-13 days at −20° C. and at 4° C. (13 days) are compared with the results for protransduzin B under the same conditions.

The subject of a further data set is cells. The data set can be described thus: Transduction of cells with protransduzin B (vectors preincubated with peptide fibrils). The class given is cell-based. As to conditions: protransduzin B 25 μg/ml added to vectors, cells incubated 2 days. The method, then:
Dissolve 0.5 mg of protransduzin B in 50 μl of DMSO. Then add 450 μl of PBS to the solution, fibrils forming within 3 min. Add this stock solution (1 mg/ml) to the vectors to obtain a concentration of protransduzin B of 25 μg/ml. Vortex the solution for 1 min, then centrifuge with 5000 g for 5 min. The supernatant is discarded, and the pellet is suspended in a little PBS and added to the cells. The cells are incubated in an incubator for 2 days.

SMILES strings stand for the structures. Non-standard residues stand in square brackets, D forms with d. Residues, ends and D or L forms follow the SMILES beside them. pGlu = O=C1CC[C@@H](C(=O)O)N1

Take `CC[C@H](C)[C@H](NC(=O)[C@H](CCCCN)NC(=O)[C@H](CS)NC(=O)[C@@H]1CCC(=O)N1)C(=O)N[C@@H](CCCCN)C(=O)N[C@@H](CCC(N)=O)C(=O)N[C@H](C(=O)N[C@H](C(=O)N[C@@H](CC(N)=O)C(=O)N[C@@H](CCSC)C(=O)N[C@@H](Cc1c[nH]c2ccccc12)C(=O)N[C@@H](CCC(N)=O)C(=O)O)[C@@H](C)CC)[C@@H](C)CC` [protransduzin B] ([pGlu]CKIKQIINMWQ-OH): the “degradation upon storage (HPLC peak height)” value in data set [1] is reported as “hardly degraded at all”. In the data set with cells, the cells transduced entry is recorded as “Up to 96%” and the transduction rate result was “significantly enhanced”.
